Experimental findings from patent publication US6342509B1, “Piperidine quaternary salts- CCR- 3 receptor antagonists” (Syntex (U.S.A.) LLC, priority 1998, dated 2002) are described below.

One may read the melting point as the temperature, or range, at which the solid turns liquid.

The target of one data set is T1, CCR-3 receptor (Homo sapiens, UniProt P51677).
T1 construct: host or cells: L1.2 (murine pre-B lymphoma line) CCR-3 transfectant cells
T1 sequence (P51677 1-355): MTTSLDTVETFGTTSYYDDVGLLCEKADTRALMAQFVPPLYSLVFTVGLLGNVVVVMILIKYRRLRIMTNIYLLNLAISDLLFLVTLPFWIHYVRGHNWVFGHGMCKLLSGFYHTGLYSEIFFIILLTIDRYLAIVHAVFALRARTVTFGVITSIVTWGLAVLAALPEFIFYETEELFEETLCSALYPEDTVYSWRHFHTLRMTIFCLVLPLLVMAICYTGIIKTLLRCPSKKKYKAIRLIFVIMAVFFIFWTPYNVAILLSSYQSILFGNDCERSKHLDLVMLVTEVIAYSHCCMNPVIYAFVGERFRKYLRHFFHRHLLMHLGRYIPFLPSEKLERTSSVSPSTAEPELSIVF
Kind of data set: CCR-3 Receptor Binding Assay in vitro (inhibition of 125I eotaxin binding to CCR-3 L1.2 transfectant cells). As to conditions: CCR-3 L1.2 transfected cells, 1 h at room temperature, read-out: IC50 (concentration of test compound required to reduce 125I-eotaxin binding to the CCR-3 L1.2 transfected cells by 50%). As to the method: The CCR-3 antagonistic activity of the compounds of the invention was determined by their ability to inhibit the binding of ^125I eotaxin to CCR-3 L1.2 transfectant cells obtained from leukoSite (Cambridge, Mass.).
The assay was performed in Costar 96-well polypropylene round bottom plates. Test compounds were dissolved in DMSO and then diluted with binding buffer (50 mM HEPES, 1 mM CaCl2, 5 mM MgCl2, 0.5% bovine serum albumin, 0.02% sodium azide, pH 7.24) such that the final DMSO concentration was 2%. 25 μl of the test solution or only buffer with DMSO (control samples) was added to each well, followed by the addition of 25 μl of ^125I-eotaxin ([…]) (NEX314, New England Nuclear, Boston, Mass.) and […] of the CCR-3 L1.2 transfected cells in 25 μl binding buffer. The final reaction volume was 75 μl.
After incubating the reaction mixture for 1 h at room temperature, the reaction was terminated by filtering the reaction mixture through polyethylenimine treated Packard Unifilter GF/C filter plate (Packard, Chicago, Ill.). The filters were washed four times with ice cold wash buffer containing 10 mm HEPES and 0.5M sodium chloride (pH 7.2) and dried at 65° C. for approximately 10 min. 25 μl/well of Microscint-20™ scintillation fluid (Packard) was added and the radioactivity retained on the filters was determined by using the Packard TopCount™.
The IC50 value (concentration of test compound required to reduce ^125I-eotaxin binding to the CCR-3 L 1.2 transfected cells by 50%) for representative compounds of the invention was: […]

Consider `COc1cc(NC(=O)NC(C[N+]2(C)CCC(Cc3ccc(Cl)c(Cl)c3)CC2)C(C)C)cc(OC)c1OC.[Cl-]` (centres unmarked), for which the melting point was in the range of 123.7 to 138 °C.
Consider `CC[N+]1(C[C@H](NC(=O)Nc2cc(OC)c(OC)c(OC)c2)C(C)C)CCC(Cc2ccc(Cl)c(Cl)c2)CC1` (some centres unmarked) [Cpd 1, 4-(3,4-Dichlorobenzyl)-1-ethyl-1-{3-methyl-2-[3-(3,4,5-trimethoxyphenyl)-ureido]butyl]piperidinium iodide], for which the IC50 at CCR-3 receptor is 210 nM.
The same measure, in the same setting: the value for `CCc1ccccc1NC(=O)N[C@@H](C[N+]1(CC)CCC(Cc2ccc(Cl)c(Cl)c2)CC1)C(C)(C)C` (some centres unmarked) [Cpd 12] was 198 nM.
As to `COc1cc(NC(=O)NC(C[N+]2(C)CCC(Cc3ccc(Cl)c(Cl)c3)CC2)C(C)C)cc(OC)c1OC` (centres unmarked) [Cpd 14, 4-(3,4-dichlorobenzyl)-1-methyl-1-{3-methyl-2-[3-(3,4,5-trimethoxyphenyl)ureido]butyl}piperidinium iodide], on CCR-3 receptor, the IC50 came to 2320 nM.
Compound `COc1cc(NC(=O)NCC[N+]2(C)CCC(Cc3ccc(Cl)c(Cl)c3)CC2)cc(OC)c1OC.[I-]` (centres unmarked) [Cpd 19, 4-(3,4-dichlorobenzyl)-1-methyl-1-{2-[(3,4,5-trimethoxyphenyl)ureido]ethyl}piperidinium iodide] gave a melting point of 102 to 108 °C.
